Target: ERα (Homo sapiens (Human), UniProt P03372)
Assay: ERα degradation (MCF7 cells), in-cell Western
Format: cell-based
Details: for IC50: inflection point of the degradation in response to ligand concentration; for IC50 / % ERα remaining: MCF7 cells; for % ERα remaining: remaining ERα protein at 10 μM ligand, relative to DMSO control; for ER Percentage remaining: degradation potential
Description: ERα Degradation (MCF7 Cells)
The column titled MCF7 IC50 reports the inflection point of the inhibition of transcription in MCF7 cells as described above. Percentage ERα remaining reports the remaining ERα protein measured at 10 μM concentration of the ligand as described above. The column ERα IC50 reports the inflection point of the degradation in response to the ligand concentration.

Chain of ERα (P03372 whole entry): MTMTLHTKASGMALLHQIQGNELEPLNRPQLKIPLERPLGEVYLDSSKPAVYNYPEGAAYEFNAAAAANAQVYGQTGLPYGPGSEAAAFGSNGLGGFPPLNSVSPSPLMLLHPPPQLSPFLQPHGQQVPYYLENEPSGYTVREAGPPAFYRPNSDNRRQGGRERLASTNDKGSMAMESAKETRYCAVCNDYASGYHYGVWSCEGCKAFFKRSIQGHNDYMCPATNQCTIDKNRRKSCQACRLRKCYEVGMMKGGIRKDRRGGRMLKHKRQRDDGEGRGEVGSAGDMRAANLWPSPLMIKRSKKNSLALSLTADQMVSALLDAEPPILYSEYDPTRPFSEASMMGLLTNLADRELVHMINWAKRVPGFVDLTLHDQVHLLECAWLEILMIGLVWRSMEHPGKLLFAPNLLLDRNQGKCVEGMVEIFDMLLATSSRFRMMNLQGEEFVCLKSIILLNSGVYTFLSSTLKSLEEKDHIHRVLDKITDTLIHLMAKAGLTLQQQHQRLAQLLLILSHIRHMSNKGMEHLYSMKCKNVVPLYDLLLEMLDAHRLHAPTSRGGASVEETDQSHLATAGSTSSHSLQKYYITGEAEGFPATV

O=C(O)/C=C/c1ccc(Oc2c(-c3ccc(O)cc3)sc3c(F)c(O)c(F)cc23)cc1 [Example 38, (E)-3-(4-((5,7-difluoro-6-hydroxy-2-(4-hydroxyphenyl)benzo[b]thiophen-3-yl)oxy)phenyl)acrylic acid]
IC50: 22 nM
% ERα remaining: 25%

O=C(O)/C=C/c1ccc(Oc2c(-c3ccc(O)cc3)sc3c(F)c(O)ccc23)cc1 [Example 39, (E)-3-(4-((7-fluoro-6-hydroxy-2-(4-hydroxyphenyl)benzo[b]thiophen-3-yl)oxy)phenyl)acrylic acid]
IC50: 70 nM
% ERα remaining: 24%

O=C(O)/C=C/c1ccc(Oc2c(-c3ccc(O)c(F)c3)sc3cc(O)ccc23)cc1 [Example 40, (E)-3-(4-((2-(3-fluoro-4-hydroxyphenyl)-6-hydroxybenzo[b]thiophen-3-yl)oxy)phenyl)acrylic acid]
IC50: 22 nM
% ERα remaining: 23%

Cc1nnc(/C=C/c2ccc(Oc3c(-c4ccc(F)cc4C)sc4cc(O)ccc34)cc2)o1 [Example 46, (E)-2-(4-fluoro-2-methylphenyl)-3-(4-(2-(5-methyl-1,3,4-oxadiazol-2-yl)vinyl)phenoxy)benzo[b]thiophen-6-ol]
IC50: 5 nM
% ERα remaining: 41%

Cc1cc(F)ccc1-c1sc2cc(O)ccc2c1Oc1ccc(/C=C/c2n[nH]c(=O)o2)cc1 [Example 48, (E)-5-(4-((2-(4-fluoro-2-methylphenyl)-6-hydroxybenzo [b]thiophen-3-yl)oxy)styryl)-1,3,4-oxadiazol-2(3H)-one]
% ERα remaining: 44%

Cc1nnc(/C=C/c2ccc(Oc3c(-c4ccc(F)cc4C)sc4cc(O)ccc34)cc2)[nH]1 [Example 49, (E)-2-(4-fluoro-2-methylphenyl)-3-(4-(2-(5-methyl-4H-1,2,4-triazol-3-yl)vinyl)phenoxy)benzo[b]thiophen-6-ol]
% ERα remaining: 28%

O=c1nc(/C=C/c2ccc(Oc3c(-c4ccc(O)cc4)sc4cc(O)ccc34)cc2)cc(C(F)(F)F)[nH]1 [Example 50, (E)-4-(4-((6-hydroxy-2-(4-hydroxyphenyl)-benzo[b]thiophen-3-yl)oxy)styryl)-6-(trifluoromethyl) pyrimidin-2(1H)-one]
IC50: 22 nM
% ERα remaining: 36%

Cc1cc(F)ccc1-c1sc2cc(O)ccc2c1Oc1ccc(/C=C/c2nnnn2C)cc1 [Example 51, (E)-2-(4-fluoro-2-methylphenyl)-3-(4-(2-(1-methyl-1H-tetrazol-5-yl)vinyl)phenoxy)-benzo[b]thiophen-6-ol]
IC50: 11 nM
% ERα remaining: 41%

Cn1nnnc1/C=C/c1ccc(Oc2c(-c3ccc(F)cc3)sc3cc(O)ccc23)cc1 [Example 52, (E)-2-(4-fluorophenyl)-3-(4-(2-(1-methyl-1H-tetrazol-5-yl)vinyl)phenoxy)benzo [b]thiophen-6-ol]
IC50: 223 nM
% ERα remaining: 41%

CCCn1nnnc1/C=C/c1ccc(Oc2c(-c3ccc(F)cc3C)sc3cc(O)ccc23)cc1 [Example 53, (E)-2-(4-fluoro-2-methylphenyl)-3-(4-(2-(1-propyl-1H-tetrazol-5-yl)vinyl)phenoxy) benzo[b]thiophen-6-ol]
% ERα remaining: 43%

Cn1nnnc1/C=C/c1ccc(Oc2c(-c3ccc(O)cc3)sc3cc(O)ccc23)cc1 [Example 54, (E)-2-(4-hydroxyphenyl)-3-(4-(2-(1-methyl-1H-tetrazol-5-yl)vinyl)phenoxy)benzo[b]thiophen-6-ol]
IC50: 60 nM
% ERα remaining: 39%

Cc1cc(/C=C/C(=O)O)ccc1Oc1c(-c2ccc(O)cc2)sc2cc(O)ccc12 [Example 57, (E)-3-(4-((6-hydroxy-2-(4-hydroxyphenyl)-benzo[b]thiophen-3-yl)oxy)-3-methylphenyl)acrylic acid]
% ERα remaining: 37%

O=C(O)/C=C/c1ccc(Oc2c(-c3ccc(OC(F)(F)F)cc3)sc3cc(O)ccc23)cc1 [Example 59, (E)-3-(4-((6-hydroxy-2-(4-(trifluoromethoxy)-phenyl)benzo[b]thiophen-3-yl)oxy)phenyl)-acrylic acid]
IC50: 30 nM
% ERα remaining: 17%

O=C(O)/C=C/c1ccc(Oc2c(-c3ccccc3)sc3cc(O)ccc23)cc1 [Example 60, (E)-3-(4-((6-hydroxy-2-phenylbenzo[b]thiophen-3-yl)oxy)phenyl)-acrylic acid]
IC50: 26 nM
% ERα remaining: 23%

Cc1cc(-c2sc3cc(O)ccc3c2Oc2ccc(/C=C/C(=O)O)cc2)ccc1O [Example 61, (E)-3-(4-((6-hydroxy-2-(4-hydroxy-3-methylphenyl)benzo[b]thiophen-3-yl)oxy)phenyl)acrylic acid]
IC50: 18 nM
% ERα remaining: 26%

C/C(=C\C(=O)O)c1ccc(Oc2c(-c3ccc(O)cc3)sc3cc(O)ccc23)cc1 [Example 62, (E)-3-(4-((6-hydroxy-2-(4-hydroxyphenyl)-benzo[b]thiophen-3-yl)oxy)phenyl)but-2-enoic acid]
% ERα remaining: 42%

CNC(=O)/C=C/c1ccc(Oc2c(-c3ccc(C(F)(F)F)cc3)sc3cc(O)ccc23)cc1 [Example 63, (E)-3-(4-((6-hydroxy-2-(4-(trifluoromethyl)-phenyl)benzo[b]thiophen-3-yl)oxy)phenyl)-N-methylacrylamide]
IC50: 24 nM
% ERα remaining: 26%

NC(=O)/C=C/c1ccc(Oc2c(-c3ccc(O)cc3)sc3cc(O)ccc23)cc1 [Example 64, (E)-3-(4-((6-hydroxy-2-(4-hydroxyphenyl)-benzo[b]thiophen-3-yl)oxy)phenyl)acrylamide]
% ERα remaining: 48%

O=C(/C=C/c1ccc(Oc2c(-c3ccc(O)cc3)sc3cc(O)ccc23)cc1)NCCO [Example 65, (E)-3-(4-((6-hydroxy-2-(4-hydroxyphenyl)benzo[b]thiophen-3-yl)oxy)phenyl)-N-(2-hydroxyethyl)acrylamide]
% ERα remaining: 47%

CNC(=O)/C=C/c1ccc(Oc2c(-c3ccc(O)cc3)sc3cc(O)ccc23)cc1 [Example 66, (E)-3-(4-((6-hydroxy-2-(4-hydroxyphenyl)benzo[b]thiophen-3-yl)oxy)phenyl)-N-methylacrylamide]
IC50: 58 nM
% ERα remaining: 40%

CNC(=O)/C=C/c1ccc(Oc2c(-c3ccc(F)cc3)sc3cc(O)ccc23)cc1 [Example 67, (E)-3-(4-((2-(4-fluorophenyl)-6-hydroxybenzo[b]thiophen-3-yl)oxy)phenyl)-N-methylacrylamide]
IC50: 347 nM
% ERα remaining: 36%

CNC(=O)/C=C/c1ccc(Oc2c(-c3ccc(O)c(C)c3)sc3cc(O)ccc23)cc1 [Example 68, (E)-3-(4-((6-hydroxy-2-(4-hydroxy-3-methylphenyl)benzo[b]thiophen-3-yl)oxy)phenyl)-N-methylacrylamide]
IC50: 161 nM
% ERα remaining: 43%

CCCn1cncc1/C=C/c1ccc(Oc2c(-c3ccc(O)cc3)sc3cc(O)ccc23)cc1 [Example 75, (E)-2-(4-hydroxyphenyl)-3-(4-(2-(1-propyl-1H-imidazol-5-yl)vinyl)phenoxy)benzo [b]thiophen-6-ol]
% ERα remaining: 41%

Cc1cc(F)ccc1-c1sc2cc(O)ccc2c1Oc1ccc(/C=C/c2nnc(C3CC3)o2)cc1 [Example 76, (E)-3-(4-(2-(5-cyclopropyl-1,3,4-oxadiazol-2-yl)vinyl)phenoxy)-2-(4-fluoro-2-methylphenyl)benzo[b] thiophen-6-ol]
IC50: 47 nM
% ERα remaining: 42%

COCc1ccccc1-c1sc2cc(O)ccc2c1Oc1ccc(/C=C/C(=O)O)cc1 [Example 80, (E)-3-(4-((6-hydroxy-2-(2-(methoxymethyl)phenyl)benzo[b]thiophen-3-yl)oxy)phenyl)acrylic acid]
% ERα remaining: 14%

Cc1cc(F)ccc1-c1sc2cc(O)ccc2c1Oc1ccc(/C=C/c2nnc(C)n2C)cc1 [Example 106, (E)-3-(4-(2-(4,5-dimethyl-4H-1,2,4-triazol-3-yl)vinyl)phenoxy)-2-(4-fluoro-2-methylphenyl)benzo[b] thiophen-6-ol]
% ERα remaining: 17%

CCc1cccc(CC)c1-c1sc2cc(O)ccc2c1Oc1ccc(/C=C/C(=O)O)cc1 [Example 130, (E)-3-(4-((2-(2,6-diethylphenyl)-6-hydroxybenzo[b]thiophen-3-yl)oxy)phenyl)acrylic acid]
% ERα remaining: 12%

CCCc1nnc(/C=C/c2ccc(Oc3c(-c4ccc(F)cc4C)sc4cc(O)ccc34)cc2)o1 [compound 47, (E)-2-(4-fluoro-2-methylphenyl)-3-(4-(2-(5-propyl-1,3,4-oxadiazol-2-yl)vinyl)phenoxy)benzo [b]thiophen-6-ol]
% ERα remaining: 43%

Cn1nnc(/C=C/c2ccc(Oc3c(-c4ccc(O)cc4)sc4cc(O)ccc34)cc2)n1 [compound 55, (E)-2-(4-hydroxyphenyl)-3-(4-(2-(2-methyl-2H-tetrazol-5-yl)vinyl)-phenoxy)benzo[b] thiophen-6-ol]
IC50: 34 nM
% ERα remaining: 33%

O=C(O)/C=C/c1ccc(Oc2c(-c3ccc(O)cc3)sc3cc(O)ccc23)cc1 [drawing 5]
ER Percentage remaining (comparison of X position): 41 Percentage

O=C(O)/C=C/c1ccc(Oc2c(-c3ccc(O)cc3)sc3cc(O)ccc23)cc1 [drawing 8]
ER Percentage remaining (comparison of linker length between phenyl and -C(O)OH): 41 Percentage

O=C(O)/C=C/c1ccc(-c2c(-c3ccc(O)cc3)sc3cc(O)ccc23)cc1 [reference compound]
ER Percentage remaining (comparison of X position): 76 Percentage

O=C(O)/C=C/c1ccc(C(=O)c2c(-c3ccc(O)cc3)sc3cc(O)ccc23)cc1 [reference compound]
ER Percentage remaining (comparison of X position): 60 Percentage

Reference: US10058534B2, “Benzothiophene derivatives and compositions thereof as selective estrogen receptor degraders” (NOVARTIS AG, priority 2013, dated 2018)
